# Reference: US8530493B2, “Indolopyridines as Eg5 kinesin modulators” (4SC AG, priority 2006, dated 2013)
# Tested on: RKO p21 uninduced (proliferating) colon adenocarcinoma cells
# Assay: Alamar Blue cell viability assay, RKO p21 uninduced (proliferating)
# Format: cell-based
# Conditions: Homo sapiens, Table B3, anti-proliferative/cytotoxic activity, 72 hours, read-out: −log EC50 RKO p21 uninduced (proliferating) (converted)
# In short: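 RKO p21 or p27 subclones grown without Ponasterone A, i.e. proliferating, exposed 24 h after seeding to semi-log compound dilutions in DMEM/10% FCS (1% DMSO controls) for 72 h at 37° C. Alamar Blue fluorescence (544/590 nm) read relative to untreated cells; EC50 from dose-response curves, given as −log EC50 (mol/l).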
row,SMILES,EC50 [µM]
1,"CCNCCN1C(=O)N2[C@H](c3cccc(O)c3)c3[nH]c4cc(F)c(Cl)cc4c3C[C@@]2(C)C1=O (racemic) [Example 338, (3aSR,10RS)-6-Chloro-2-(2-ethylamino-ethyl)-7-fluoro-10-(3-hydroxy-phenyl)-3a-methyl-3a,4,9,10-tetrahydro-2,9,10a-triaza-cyclopenta[b]fluorene-1,3-dione]",≤ 0.0398
2,"CCN(C)CCCN1C(=O)N2[C@H](c3cccc(O)c3)c3[nH]c4ccc(OC)cc4c3C[C@@]2(C)C1=O [Example 541, (3aS,10R)-2-[3-(Ethyl-methyl-amino)-propyl]-10-(3-hydroxy-phenyl)-6-methoxy-3a-methyl-3a,4,9,10-tetrahydro-2,9,10a-triaza-cyclopenta[b]fluorene-1,3-dione]",≤ 0.0398
3,"C[C@@]12Cc3c([nH]c4ccc(Br)cc34)[C@@H](c3cccc(O)c3)N1C(=O)N(CCN1CC=CCC1)C2=O (racemic) [Example 395, (3aSR,10RS)-6-Bromo-2-[2-(3,6-dihydro-2H-pyridin-1-yl)-ethyl]-10-(3-hydroxy-phenyl)-3a-methyl-3a,4,9,10-tetrahydro-2,9,10a-triaza-cyclopenta[b]fluorene-1,3-dione]",0.0398 to 0.251
4,"COc1cc2c3c([nH]c2cc1F)[C@@H](c1cccc(O)c1)N1C(=O)N(CCN2CCCCC2)C(=O)[C@]1(C)C3 (racemic) [Example 263, (3aSR,10RS)-7-Fluoro-10-(3-hydroxy-phenyl)-6-methoxy-3a-methyl-2-(2-piperidin-1-yl-ethyl)-3a,4,9,10-tetrahydro-2,9,10a-triaza-cyclopenta[b]fluorene-1,3-dione]",0.0398 to 0.251
5,"CC(C)(C)NCCCN1C(=O)N2[C@H](c3cccc(O)c3)c3[nH]c4ccc(OC(F)F)cc4c3C[C@@]2(C)C1=O (racemic) [Example 182, (3aSR,10RS)-2-(3-tert-Butylamino-propyl)-6-(1,1-difluoro-methoxy)-10-(3-hydroxy-phenyl)-3a-methyl-3a,4,9,10-tetrahydro-2,9,10a-triaza-cyclopenta[b]fluorene-1,3-dione]",≤ 0.0398
6,"COc1cc2c3c([nH]c2cc1F)[C@@H](c1cccc(O)c1)N1C(=O)N(CCNCCO)C(=O)[C@]1(C)C3 [Example 245, (3aS,10R)-7-Fluoro-2-[2-(2-hydroxy-ethylamino)-ethyl]-10-(3-hydroxy-phenyl)-6-methoxy-3a-methyl-3a,4,9,10-tetrahydro-2,9,10a-triaza-cyclopenta[b]fluorene-1,3-dione]",0.0398 to 0.251
7,"COc1cc2c3c([nH]c2cc1F)[C@@H](c1cccc(O)c1)N1C(=O)N(CCCNC(C)C)C(=O)[C@]1(C)C3 (racemic) [Example 331, (3aSR,10RS)-7-Fluoro-10-(3-hydroxy-phenyl)-2-{3-isopropylamino-propyl)-6-methoxy-3a-methyl-3a,4,9,10-tetrahydro-2,9,10a-triaza-cyclopenta[b]fluorene-1,3-dione]",0.0398 to 0.251
8,"C[C@@]12Cc3c([nH]c4ccc(Br)cc34)[C@@H](c3cccc(O)c3)N1C(=O)N(CCCN1CC=CCC1)C2=O (racemic) [Example 232, (3aSR,10RS)-6-Bromo-2-[3-(3,6-dihydro-2H-pyridin-1-yl)-propyl]-10-(3-hydroxy-phenyl)-3a-methyl-3a,4,9,10-tetrahydro-2,9,10a-triaza-cyclopenta[b]fluorene-1,3-dione]",≤ 0.0398
9,"C[C@@]12Cc3c([nH]c4ccc(OC(F)F)cc34)[C@@H](c3cccc(O)c3)N1C(=O)N(CCCN1CC=CCC1)C2=O (racemic) [Example 242, (3aSR,10RS)-6-(1,1-Difluoro-methoxy)-2-[3-(3,6-dihydro-2H-pyridin-1-yl)-propyl]-10-(3-hydroxy-phenyl)-3a-methyl-3a,4,9,10-tetrahydro-2,9,10a-triaza-cyclopenta[b]fluorene-1,3-dione]",≤ 0.0398
10,"C=CCNCCN1C(=O)N2[C@H](c3cccc(O)c3)c3[nH]c4ccc(Br)cc4c3C[C@@]2(C)C1=O (racemic) [Example 383, (3aSR,10RS)-2-(2-Allylamino-ethyl)-6-bromo-10-(3-hydroxy-phenyl)-3a-methyl-3a,4,9,10-tetrahydro-2,9,10a-triaza-cyclopenta[b]fluorene-1,3-dione]",≤ 0.0398
11,"CCOc1ccc2[nH]c3c(c2c1)C[C@@]1(C)C(=O)N(CCCN2CCCC2)C(=O)N1[C@@H]3c1cccc(O)c1 (racemic) [Example 221, (3aSR,10RS)-6-Ethoxy-10-(3-hydroxy-phenyl)-3a-methyl-2-(3-pyrrolidin-1-yl-propyl)-3a,4,9,10-tetrahydro-2,9,10a-triaza-cyclopenta[b]fluorene-1,3-dione]",0.0398 to 0.251
12,"COc1ccc2[nH]c3c(c2c1)C[C@@]1(C)C(=O)N(CCCNC2CC2)C(=O)N1[C@@H]3c1cccc(O)c1 [Example 537, (3aS,10R)-2-(3-Cyclopropylamino-propyl)-10-(3-hydroxy-phenyl)-6-methoxy-3a-methyl-3a,4,9,10-tetrahydro-2,9,10a-triaza-cyclopenta[b]fluorene-1,3-dione]",≤ 0.0398
13,"C[C@@]12Cc3c([nH]c4cc(F)c(Cl)cc34)[C@@H](c3cccc(O)c3)N1C(=O)N(CCNC1CCC1)C2=O (racemic) [Example 344, (3aSR,10RS)-6-Chloro-2-(2-cyclobutylamino-ethyl)-7-fluoro-10-(3-hydroxy-phenyl)-3a-methyl-3a,4,9,10-tetrahydro-2,9,10a-triaza-cyclopenta[b]fluorene-1,3-dione]",≤ 0.0398
14,"COc1cc2c3c([nH]c2cc1F)[C@@H](c1cccc(O)c1)N1C(=O)N(CCCN2CCC(C)CC2)C(=O)[C@]1(C)C3 (racemic) [Example 327, (3aSR,10RS)-7-Fluoro-10-(3-hydroxy-phenyl)-6-methoxy-3a-methyl-2-[3-(4-methyl-piperidin-1-yl)-propyl]-3a,4,9,10-tetrahydro-2,9,10a-triaza-cyclopenta[b]fluorene-1,3-dione]",0.0398 to 0.251
15,"COc1cc2c3c([nH]c2cc1F)[C@@H](c1cccc(O)c1)N1C(=O)N(CCCN(C)C)C(=O)[C@]1(C)C3 (racemic) [Example 310, (3aSR,10RS)-2-(3-Dimethylamino-propyl)-7-fluoro-10-(3-hydroxy-phenyl)-6-methoxy-3a-methyl-3a,4,9,10-tetrahydro-2,9,10a-triaza-cyclopenta[b]fluorene-1,3-dione]",0.0398 to 0.251
16,"COc1cc2c3c([nH]c2cc1F)[C@@H](c1cccc(O)c1)N1C(=O)N(CCCNCC(C)C)C(=O)[C@]1(C)C3 (racemic) [Example 332, (3aSR,10RS)-7-Fluoro-10-(3-hydroxy-phenyl)-2-(3-isobutylamino-propyl)-6-methoxy-3a-methyl-3a,4,9,10-tetrahydro-2,9,10a-triaza-cyclopenta[b]fluorene-1,3-dione]",0.0398 to 0.251
17,"CCOc1ccc2[nH]c3c(c2c1)C[C@@]1(C)C(=O)N(CCNCCO)C(=O)N1[C@@H]3c1cccc(O)c1 (racemic) [Example 159, (3aSR,10RS)-6-Ethoxy-2-[2-(2-hydroxy-ethylamino)-ethyl]-10-(3-hydroxy-phenyl)-3a-methyl-3a,4,9,10-tetrahydro-2,9,10a-triaza-cyclopenta[b]fluorene-1,3-dione]",0.0398 to 0.251
18,"CCN(CCCN1C(=O)N2[C@H](c3cccc(O)c3)c3[nH]c4ccc(OC(F)F)cc4c3C[C@@]2(C)C1=O)CCOC (racemic) [Example 178, (3aSR,10RS)-6-(1,1-Difluoro-methoxy)-2-{3-[ethyl-(2-methoxy-ethyl)-amino]-propyl}-10-(3-hydroxy-phenyl)-3a-methyl-3a,4,9,10-tetrahydro-2,9,10a-triaza-cyclopenta[b]fluorene-1,3-dione]",≤ 0.0398
